In US20260250289A1, “BICYCLIC HETEROCYCLES AND THEIR USE AS WRN INHIBITORS” (Novartis AG, priority 2022, published 2026):

How the values were obtained:
[1] = target: T1, WRN helicase (aa N517-P1238) (Homo sapiens, UniProt Q14191); test: WRN ATPase assay (DNA dependent ATP hydrolysis, ADP-Glo); type: biochemical; conditions: 3 hours pre-incubation, 300 micromolar ATP, FLAP26 DNA; geometric mean of at least 2
T1 construct: The core helicase motif of the WRN protein (aa N517-P1238) was produced for this assay; His (N); ZZ (N); 3C protease cleavage site (N); made in house; host or cells: Sf21 insect cells (baculovirus; virus and BIICs made in SF9)
Summary of the method: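 DNA-dependent ATP hydrolysis detected as ADP by ADP-Glo luminescence, using 300 μM ATP, 0.2 nM FLAP26 substrate and 10 nM WRN aa N517-P1238 (Tris pH 7.5 buffer, 2 mM MgCl2, 50 mM NaCl). IC50s fitted from normalized duplicate half-log dilutions; reported as geometric means of at least 2 replicates.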

SW48 cells = test: Proliferation assay SW48 (CellTiterGlo); type: cell-based; conditions: Homo sapiens, SW48, 96 h, SW48 colon carcinoma cells, 96 hours, CellTiterGlo; geometric mean of at least 2; read-out: Proliferation Assay SW48 GI50
Summary of the method: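 SW48 cells, 2,000/well, treated after overnight seeding with eight 3-fold compound dilutions (0.1% DMSO) for 96 hours at 37° C. Viability read as ATP by CellTiterGlo luminescence, normalised to a day-0 plate and vehicle to give % growth; GI50 is geometric mean of ≥2 independent replicates.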

DLD1-WRN-KO cells = test: Proliferation assay DLD1-WRN-KO (CellTiterGlo, off-target effects); type: cell-based; conditions: 96 hours, geometric mean of at least 2
Summary of the method: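 DLD1 cells with CRISPR knockout of WRN were exposed overnight-seeded to eight 3-fold compound dilutions (0.1% DMSO) for 96 h at 37 °C. Viability was read as ATP by CellTiterGlo luminescence against a day-0 plate, giving GI50 and residual viability at top concentration.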

T1 sequence (Q14191 517-1238): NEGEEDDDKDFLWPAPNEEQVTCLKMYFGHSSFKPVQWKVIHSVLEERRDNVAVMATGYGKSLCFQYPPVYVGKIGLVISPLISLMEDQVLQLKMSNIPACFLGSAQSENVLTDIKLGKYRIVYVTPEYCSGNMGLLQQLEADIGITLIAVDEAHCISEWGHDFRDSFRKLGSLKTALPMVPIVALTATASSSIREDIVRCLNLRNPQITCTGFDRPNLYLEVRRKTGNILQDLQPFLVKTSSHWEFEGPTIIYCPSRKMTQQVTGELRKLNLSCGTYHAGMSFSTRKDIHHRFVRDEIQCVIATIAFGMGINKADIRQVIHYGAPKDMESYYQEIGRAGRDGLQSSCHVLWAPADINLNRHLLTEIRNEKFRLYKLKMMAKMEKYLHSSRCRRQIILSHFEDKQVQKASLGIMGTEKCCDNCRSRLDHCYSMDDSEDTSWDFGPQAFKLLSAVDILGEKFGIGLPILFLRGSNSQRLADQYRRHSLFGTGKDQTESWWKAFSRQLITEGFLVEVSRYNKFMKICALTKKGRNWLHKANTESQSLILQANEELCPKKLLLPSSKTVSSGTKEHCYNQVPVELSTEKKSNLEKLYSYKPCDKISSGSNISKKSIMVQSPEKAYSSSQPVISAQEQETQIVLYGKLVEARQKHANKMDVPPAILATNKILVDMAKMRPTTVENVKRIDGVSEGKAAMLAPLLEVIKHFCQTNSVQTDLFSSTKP

Row | Structure (SMILES) | IC50 [1] | GI50 (SW48 cells) | GI50 (DLD1-WRN-KO cells)
1 | Cc1nnc(C(=O)N2CCN(c3c(C)n(CC(=O)Nc4ccc(C(F)(F)F)cc4)c4nc(C5=CCOCC5)nn4c3=O)CC2)[nH]1 [Example 159, 2-(2-(3,6-dihydro-2H-pyran-4-yl)-5-methyl-6-(4-(5-methyl-4H-1,2,4-triazole-3-carbonyl)piperazin-1-yl)-7-oxo-[1,2,4]triazolo[1,5-a]pyrimidin-4(7H)-yl)-N-(4-(trifluoromethyl)phenyl)acetamide] | 600 nM | > 10000 nM | > 10000 nM
2 | CC(=O)N1CCN(c2c(C)n(CC(=O)Nc3cc(Cl)c(C(F)(F)F)nc3C)c3nc(C4=CCOCC4)nn3c2=O)CC1 [Example 87, 2-(6-(4-acetylpiperazin-1-yl)-2-(3,6-dihydro-2H-pyran-4-yl)-5-methyl-7-oxo-[1,2,4]triazolo[1,5-a]pyrimidin-4(7H)-yl)-N-(5-chloro-2-methyl-6-(trifluoromethyl)pyridin-3-yl)acetamide] | 500 nM | 4000 nM | > 10000 nM
3 | CC(=O)N1CCN(c2c(C)n(CC(=O)Nc3ccc(S(F)(F)(F)(F)F)cc3)c3nc(C4=CCOCC4)nn3c2=O)CC1 [Example 78, 2-(6-(4-acetylpiperazin-1-yl)-2-(3,6-dihydro-2H-pyran-4-yl)-5-methyl-7-oxo-[1,2,4]triazolo[1,5-a]pyrimidin-4(7H)-yl)-N-(4-(pentafluoro-l6-sulfaneyl)phenyl)acetamide] | 200 nM | 3000 nM | > 10000 nM
4 | COC(=O)N1CC=C(c2nc3n(CC(=O)Nc4ccc(Cl)c(C(F)(F)F)c4)c(C)c(N4CCN(C(C)=O)CC4)c(=O)n3n2)CC1 [Example 77, methyl 4-(6-(4-acetylpiperazin-1-yl)-4-(2-((4-chloro-3-(trifluoromethyl)phenyl)amino)-2-oxoethyl)-5-methyl-7-oxo-4,7-dihydro-[1,2,4]triazolo[1,5-a]pyrimidin-2-yl)-5,6-dihydropyridine-1(2H)-carboxylate] | 200 nM | 4000 nM | > 10000 nM
5 | CC(=O)N1CC=C(c2nc3n(CC(=O)Nc4ccc(S(F)(F)(F)(F)F)cc4)c(C)c(N4CCN(C(C)=O)CC4)c(=O)n3n2)CC1 [Example 71, 2-(2-(1-acetyl-1,2,3,6-tetrahydropyridin-4-yl)-6-(4-acetylpiperazin-1-yl)-5-methyl-7-oxo-[1,2,4]triazolo[1,5-a]pyrimidin-4(7H)-yl)-N-(4-(pentafluoro-l6-sulfaneyl)phenyl)acetamide] | 90 nM | 5000 nM | > 10000 nM
6 | CCc1c(N2CCN(C(C)=O)CC2)c(=O)n2nc(C3=CCCCO3)nc2n1CC(=O)Nc1ccc(C(F)(F)F)cc1 [Example 57, 2-(6-(4-acetylpiperazin-1-yl)-2-(3,4-dihydro-2H-pyran-6-yl)-5-ethyl-7-oxo-[1,2,4]triazolo[1,5-a]pyrimidin-4(7H)-yl)-N-(4-(trifluoromethyl)phenyl)acetamide] | 100 nM | 1000 nM | > 10000 nM
7 | Cc1c(C2CCN(C(=O)c3c(F)ccc(F)c3O)CC2)c(=O)n2nc(C3=CCOCC3)nc2n1CC(=O)Nc1ccc(C(F)(F)F)cc1 [Example 136, 2-(6-(1-(3,6-difluoro-2-hydroxybenzoyl)piperidin-4-yl)-2-(3,6-dihydro-2H-pyran-4-yl)-5-methyl-7-oxo-[1,2,4]triazolo[1,5-a]pyrimidin-4(7H)-yl)-N-(4-(trifluoromethyl)phenyl)acetamide] | 20 nM | 500 nM | > 10000 nM
8 | CCc1c(C2=CCN(C(C)=O)CC2)c(=O)n2nc(C3=CCCCO3)nc2n1CC(=O)Nc1ccc(C(F)(F)F)cc1 [Example 142, 2-(6-(1-acetyl-1,2,3,6-tetrahydropyridin-4-yl)-2-(3,4-dihydro-2H-pyran-6-yl)-5-ethyl-7-oxo-[1,2,4]triazolo[1,5-a]pyrimidin-4(7H)-yl)-N-(4-(trifluoromethyl)phenyl)acetamide] | 600 nM | 5000 nM | > 10000 nM
